Experimental data taken from patent US9205174B2, “Bone graft substitute in the form of an implantable three-dimensional scaffold and method of manufacturing same” (Mathys AG Bettlach, priority 2010, dated 2015).

Tests used:
[1] = for expected (added) amount beyond which additional salt does not load the block / loading efficiency drastically decreases: 0.50 g/mL solution, 14×14 mm β-TCP cylinder, dried at 95° C.
Procedure: A 2^2 factorial design of experiments with three repeats was performed with the following factors: Factor A: CaCl2 concentration (0.25 or 0.50 g/mL); Factor B: Liquid amount (3.5 or 7.0 mL). Each of the 14×14 mm cylinders was placed standing in a snap cap flask.
The solution was then slowly added to allow impregnation through capillarity. The cylinder top was always protruding out of the solution. The samples were then inserted into the drying cupboard tempered at 60° C. The ventilation of the drying cupboard was set at its maximum.
The weight of the flask+solution+samples was measured at regular interval to determine the point at which constant weight was reached. […] Therefore, these 9 samples were removed from the flask and the weight was determined without flask. The 3 samples made with 7 mL 0.50 g/mL solution were kept for a longer time. The drying temperature was increased to 80° C.
Each of the 14×14 mm cylinders was placed standing in a snap cap flask. The solution was then slowly injected at the bottom of the snap-cap flask to allow impregnation through capillarity. 6 different volumes were injected: 1.8, 2.7, 3.6, 4.5, 5.6 and 6.3 mL.
Two cylinders were prepared for each solution volume. The cylinder top was always protruding out of the solution. The samples were then inserted into the drying cupboard tempered at 95° C. The ventilation of the drying cupboard was set at its maximum.
The weight of the flask+solution+samples was measured at regular interval to determine the point at which constant weight was reached. The sample weight was determined to assess how much di-potassium hydrogen phosphate was present in the block pores.
Each of the 14×14 mm cylinders was placed standing in a snap cap flask. The solution (kept at 95° C.) was then slowly injected at the bottom of the snap-cap flask to allow impregnation through capillarity. […]
The weight of the flask+solution+samples was measured at regular interval to determine the point at which constant weight was reached. […] The sample weight was determined to assess how much di-potassium hydrogen phosphate was present in the block pores.

[2] = Release test of loaded β-TCP blocks in 1 L deionized water, weight loss after drying; assay type: physicochemical; settings: for dissolution rate DRD relative to dissolution rate DRS of β-TCP: from weight losses; for release rate (in words): from loaded β-TCP blocks in 1 L deionized water; for amount released: 50 RPM
Procedure: Each sample was then placed into a small porous cage produced by joining together two BD Falcon filters (Mesh size: 70 micrometers). The cage was lowered into a 1 L deionized water. Stirring was performed with a large magnetic bar (6 cm in length) at 50 RPM. The samples were removed from the solution after 1 h or 3 h (1 sample per time and per composition). The samples were then dried at 95° C. and weighed to determine the amount of Na2HPO4.2H2O released during the test.
Each sample was then placed into a small porous cage produced by joining together two BD Falcon filters (Mesh size: 70 micrometers). The cage was lowered into a 1 L deionized water. Stirring was performed with a large magnetic bar (6 cm in length) at 50 RPM. The samples were removed from the solution after 10 min, 1 h or 6 h (1 samples per time and per composition). The samples were then dried at 95° C. and weighed to determine the amount of CaCl2 released during the incubation.

| SMILES | expected (added) amount beyond which additional salt does not load the block / loading efficiency drastically decreases [1] | dissolution rate DRD relative to dissolution rate DRS of β-TCP ([2]; deionized water) | release rate (in words) [2] | loading efficiency ([1]; Example 1, porous β-TCP blocks, 7 mL of 0.25 g/mL or 3.5 mL of 0.50 g/mL solution, dried at 60° C.) | amount released ([2]; Example 4, after 1 h, deionized water) | state of samples after release ([2]; Example 4, at 6 h, deionized water) | amount released ([2]; Example 4, within 10 minutes, deionized water) |
| --- | --- | --- | --- | --- | --- | --- | --- |
| O=P([O-])([O-])O.[K+].[K+] [K2HPO4, di-potassium hydrogen phosphate] | ≈ 2.5 g | – | – | – | – | – | – |
| O=P([O-])([O-])O.[Na+].[Na+] [Na2HPO4.2H2O, di-sodium hydrogen phosphate] | ~1.35 g | two order of magnitude larger | relatively slowly | – | – | – | – |
| [Ca+2].[Cl-].[Cl-] [calcium chloride] | – | more than 100 times | very fast | ~84% | 80-85% | free of calcium chloride | roughly 50% |
